Where “and” joins values, the source holds several entries; their conditions need not be identical. Identical values can stand only once.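 How tested: cells in 96-well plates exposed to compound for 48 hours at five concentrations. GI50: concentration for 50% inhibition of growth. TGI: concentration producing complete growth inhibition.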
Experiments:
Assay in all cases: inhibition of tumour cell growth, NCI panel, 48 h
[1] = system: NCI/ADR-RES ovarian
[2] = system: SN12C renal
[3] = system: LOX IMVI melanoma
[4] = system: ACHN renal
[5] = system: BT-549 breast
[6] = system: K-562 leukemia
[7] = system: HCT-116 colon
[8] = system: MDA-MB-231 breast
[9] = system: T-47D breast
[10] = system: NCI-H226 lung

Structure (SMILES)	GI50 [1] [µM]	TGI [1] [µM]	GI50 [2] [µM]	TGI [2]	GI50 [3] [µM]	TGI [3] [µM]	GI50 [4] [µM]	TGI [4]	GI50 [5] [µM]	TGI [5] [µM]	GI50 [6] [µM]	TGI [6] [µM]	GI50 [7] [µM]	TGI [7]	GI50 [8] [µM]	TGI [8] [µM]	GI50 [9] [µM]	TGI [9] [µM]	TGI [10] [µM]	GI50 [10] [µM]
N#CC1=C(N)NC(=S)C(C#N)C12Nc1ccccc1S2 (stereo unspecified)	14.3	43.7	14.4	33.2 µM	13.5	32.6	9.82	29.4 µM	21.7	49.1	48.2	> 100	18.5	41.7 µM	11	32.9	32.9	98.4	–	–
CCCC/C=C1\CCC(CN2CCCC2)C1=O (stereo unspecified)	–	–	–	32 µM	–	21.7	–	19.2 µM	–	–	–	11.1	–	27.3 µM	–	–	–	–	31.8	–
O=C(O)C(O)c1ccc(F)cc1 (stereo unspecified)	–	> 100	–	> 100 µM	–	> 100	–	> 100 µM	–	> 100	–	> 100	–	> 100 µM	–	> 100	–	> 100	–	–
CN1CCN(CCCOc2ccc3ncnc(Nc4ccc(Oc5cccc(F)c5)c(Cl)c4)c3c2)CC1	1.83	4.79	1.39	2.74 µM	1.7	3.1	1.02	2.19 µM	1.7	3.3	1.19	4.34	1.51	2.86 µM	1.7	3.16	1.34	4.35	–	–
CC(=O)Nc1ccc2c(c1)CN1C(=O)c3ccccc3C1=N2	> 100	> 100	–	–	> 100	> 100	> 100	> 100 µM	–	–	> 100	> 100	> 100	> 100 µM	> 100	> 100	> 100	> 100	> 100	> 100
Cc1cc(S(N)(=O)=O)c(S/C(=N\NS(=O)(=O)c2ccccc2)c2ccc(Cl)c(Cl)c2)cc1Cl	28.5	77.6	34.1	> 100 µM	36.1	> 100	30	92.7 µM	38.8	> 100	32.9	> 100	38	> 100 µM	28.7	> 100	–	–	> 100	45.1
Cc1ccc(N2C(=O)/C(=C3\Sc4c(nc(C)n(C)c4=O)N3c3ccccc3)SC2=S)cc1	–	–	–	> 100 µM	–	> 100	–	> 100 µM	–	–	–	> 100	–	> 100 µM	–	–	–	–	64.6	–
C=C1C(=O)C23CC1CCC2C12CO[C@@]3(O)[C@@H](O)C1C(C)(C)C=CC2=O (stereo partly specified)	–	60.4	2.03	3.87 µM and 4.05 µM	–	11.5	3.36	1.42 µM and 11.5 µM	–	–	–	> 100	2.9	1.01 µM and 9.03 µM	–	12	–	33.1	12.5	–
CN1C=C(C(N)=O)C2CC(O)[C@@](NC(=O)CS(N)(=O)=O)(C(=O)O)C2C1 (stereo partly specified)	–	–	–	> 75.1 µM	–	5.58	–	97.3 µM	–	–	–	> 100	–	18.7 µM	–	–	–	–	8.52	–
CC(=O)[O-].O=[N+]([O-])c1ccc([O-])c(C=NCCN=Cc2cc([N+](=O)[O-])ccc2[O-])c1.[Mn+3]	–	–	> 100	> 100 µM	75.8	> 100	> 100	> 100 µM	–	–	> 100	> 100	> 100	> 100 µM	–	–	–	–	> 100	89.1
c1cc2ccc1C1NCCCN1CCN1CCCNC1c1ccc(cc1)C1NCCCN1CCN1CCCNC21 (stereo unspecified)	–	–	–	> 100 µM	–	> 100	–	> 100 µM	–	–	–	> 100	–	> 100 µM	–	–	–	–	–	–
C/C(=N\O)[C@H]1CC[C@@]2(C)[C@@H]3CC[C@H]4C(C)(C)/C(=N/O)CC[C@@]45CC35CC[C@]12C (stereo partly specified)	2.76	7.93	6.58	> 16.7 µM	0.759	4.1	2.51	4.97 µM	2.65	9.59	3.42	> 16.7	2.45	5.77 µM	7.46	> 16.7	–	–	> 16.7	5.03
OCCN(CCO)c1ncnc2c1sc(=S)n2-c1ccccc1	–	–	–	> 100 µM	–	> 100	–	> 100 µM	–	–	–	> 100	–	> 100 µM	–	–	–	–	> 100	–
N#CC1=C(N)Oc2c(sc3c(Br)cccc23)C1c1ccc(F)cc1 (stereo unspecified)	0.215	2.63	1.22	18.7 µM	0.695	15.2	0.682	17 µM	1.01	19.3	0.275	23.9	0.409	12.3 µM	0.824	15.9	0.34	19.7	–	–
CC(C)(C)c1cc(C(=O)O)c(C(c2ccccc2)c2ccccc2C(=O)O)c(C(=O)O)c1 (stereo unspecified)	–	–	–	49.1 µM	–	> 100	–	40 µM	–	–	–	> 100	–	> 100 µM	–	–	–	–	76.7	–
CC12O[Te]34OC1(C)C(C)(O3)C2(C)O4	–	–	–	23 µM	–	16.4	–	27 µM	–	–	–	–	–	23.2 µM	–	–	–	–	44.6	–
C=C1c2ccccc2N(S(=O)(=O)c2ccc(C)cc2)C12CCCCC2	–	–	–	> 100 µM	–	> 100	–	> 100 µM	–	–	–	> 100	–	> 100 µM	–	–	–	–	> 100	–
NC(=O)c1ncn(C2OC(CO)C(O)C2O)c1NC(=S)NC(=O)c1ccccc1 (stereo unspecified)	–	–	–	> 100 µM	–	> 100	–	> 100 µM	–	–	–	> 100	–	> 100 µM	–	–	–	–	> 100	–
Nc1nc(Cl)cc(NCCCCCCNc2cc(Cl)nc(N)n2)n1	–	–	–	> 100 µM	–	> 100	–	22.5 µM	–	–	–	> 100	–	> 100 µM	–	–	–	–	> 100	–
C1=CC=C2NCCSCCNC3=CC=CC=CC3=NCCSCCN=C2C=C1	–	–	–	> 100 µM	–	> 100	–	> 100 µM	–	–	–	> 100	–	> 100 µM	–	–	–	–	> 100	–
CCOC(=O)c1cc(C(=O)O)c(=O)n2c1[nH]c1ccccc12	–	–	–	> 100 µM	–	–	–	> 100 µM	–	–	–	> 100	–	> 100 µM	–	–	–	–	–	–
O=C1OC(c2ccc(Cl)c3ccccc23)c2ccccc21 (stereo unspecified)	–	–	–	> 100 µM	–	–	–	> 100 µM	–	–	–	> 100	–	> 100 µM	–	–	–	–	–	–
